Data from ChEMBL document CHEMBL1201862, “PubChem BioAssay data set” (2004).
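The compound was tested at five concentrations on cells cultured in 96-well plates, with a 48-hour exposure period. At the GI50, growth is halved.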 Active and inactive are the calls of the source. No stated cut-off is given here; in the data, active = GI50 up to about 1.1 µM and inactive = higher.

What was measured:
Assay in all cases: NCI tumour cell line growth inhibition, 48 h
SN12C = tested on: SN12C
HOP-62 = tested on: HOP-62
NCI-H522 = tested on: NCI-H522
U-251 = tested on: U-251
OVCAR-3 = tested on: OVCAR-3
786-0 = tested on: 786-0
NCI-H23 = tested on: NCI-H23
CCRF-CEM = tested on: CCRF-CEM
NCI-H460 = tested on: NCI-H460
IGROV-1 = tested on: IGROV-1
TK-10 = tested on: TK-10
SW-620 = tested on: SW-620
UACC-62 = tested on: UACC-62
NCI-H226 = tested on: NCI-H226
HOP-92 = tested on: HOP-92
UO-31 = tested on: UO-31
SK-MEL-2 = tested on: SK-MEL-2
LOX IMVI = tested on: LOX IMVI

Compound	GI50 (SN12C)	GI50 (HOP-62)	GI50 (NCI-H522)	GI50 (U-251)	GI50 (OVCAR-3)	GI50 (786-0)	GI50 (NCI-H23)	GI50 (CCRF-CEM)	GI50 (NCI-H460)	GI50 (IGROV-1)	GI50 (TK-10)	GI50 (SW-620)	GI50 (UACC-62)	GI50 (NCI-H226)	GI50 (HOP-92)	GI50 (UO-31)	GI50 (SK-MEL-2)	GI50 (LOX IMVI)
COC(=O)CC1CC2(C(=O)OC)c3[nH]c4ccccc4c3CCN2C1=O (centres undefined)	> 100 µM (inactive)	> 100 µM (inactive)	> 100 µM (inactive)	> 100 µM (inactive)	> 100 µM (inactive)	> 100 µM (inactive)	> 100 µM (inactive)	> 100 µM (inactive)	> 100 µM (inactive)	> 100 µM (inactive)	> 100 µM (inactive)	> 100 µM (inactive)	> 100 µM (inactive)	> 100 µM (inactive)	> 100 µM (inactive)	> 100 µM (inactive)	> 100 µM (inactive)	> 100 µM (inactive)
O=C1OC(=O)c2c1nc1ccccc1c2-c1ccccc1	> 100 µM (inactive)	> 100 µM (inactive)	> 100 µM (inactive)	> 100 µM (inactive)		> 100 µM (inactive)		> 100 µM (inactive)	> 100 µM (inactive)	> 100 µM (inactive)	> 100 µM (inactive)	> 100 µM (inactive)	> 100 µM (inactive)	> 100 µM (inactive)	> 100 µM (inactive)	> 100 µM (inactive)	> 100 µM (inactive)	> 100 µM (inactive)
CC(C)c1cccc(C(C)C)c1NC(=O)C(=O)C(C(=O)c1ccc2ccccc2c1)C1OC(=O)c2ccccc21 (centres undefined)	> 100 µM (inactive)	82.2 µM (inactive)	> 100 µM (inactive)	> 100 µM (inactive)	> 100 µM (inactive)	> 100 µM (inactive)	> 100 µM (inactive)	> 100 µM (inactive)	> 100 µM (inactive)	> 100 µM (inactive)		> 100 µM (inactive)	> 100 µM (inactive)	19.7 µM (inactive)	27.9 µM (inactive)	47.8 µM (inactive)	> 100 µM (inactive)	> 100 µM (inactive)
CN(C)c1ncnc2c1Cc1ccccc1C(=O)N2C	> 100 µM (inactive)	> 100 µM (inactive)	> 100 µM (inactive)	> 100 µM (inactive)	> 100 µM (inactive)	> 100 µM (inactive)	> 100 µM (inactive)	> 100 µM (inactive)	> 100 µM (inactive)	> 100 µM (inactive)	> 100 µM (inactive)	> 100 µM (inactive)	> 100 µM (inactive)	> 100 µM (inactive)	> 100 µM (inactive)	> 100 µM (inactive)	> 100 µM (inactive)	> 100 µM (inactive)
CC1(C)C(=O)CCC(=O)C(C)(C)C2=CC=C(O2)C(C)(C)C(=O)CCC(=O)C(C)(C)C2=CC=C1O2		> 100 µM (inactive)	> 100 µM (inactive)	> 100 µM (inactive)	> 100 µM (inactive)	> 100 µM (inactive)	> 100 µM (inactive)	> 100 µM (inactive)	> 100 µM (inactive)	> 100 µM (inactive)	> 100 µM (inactive)	> 100 µM (inactive)		> 100 µM (inactive)	76.9 µM (inactive)		> 100 µM (inactive)	> 100 µM (inactive)
C/C(=N\NC(=S)N1CCC(C2CCN(C(=S)N/N=C(\C)c3ccccn3)CC2)CC1)c1ccccn1	86.3 µM (inactive)	> 100 µM (inactive)	63.5 µM (inactive)	34.1 µM (inactive)	60.3 µM (inactive)	45.4 µM (inactive)	59.7 µM (inactive)	> 100 µM (inactive)	> 100 µM (inactive)	68.7 µM (inactive)	53.8 µM (inactive)	> 100 µM (inactive)	> 100 µM (inactive)	60.7 µM (inactive)	37.8 µM (inactive)	> 100 µM (inactive)		68.9 µM (inactive)
S=C1NCCN1	> 100 µM (inactive)	> 100 µM (inactive)	> 100 µM (inactive)	> 100 µM (inactive)	> 100 µM (inactive)	> 100 µM (inactive)	> 100 µM (inactive)	> 100 µM (inactive)		> 100 µM (inactive)	> 100 µM (inactive)	> 100 µM (inactive)	> 100 µM (inactive)	> 100 µM (inactive)	> 100 µM (inactive)	> 100 µM (inactive)	> 100 µM (inactive)	> 100 µM (inactive)
COc1ccc(C(=O)C(c2ccc(OC)cc2)C2(O)C(=O)Nc3ccccc32)cc1 (centres undefined)	> 100 µM (inactive)		> 100 µM (inactive)	> 100 µM (inactive)	> 100 µM (inactive)	> 100 µM (inactive)	> 100 µM (inactive)	> 100 µM (inactive)		> 100 µM (inactive)	> 100 µM (inactive)	> 100 µM (inactive)	> 100 µM (inactive)	> 100 µM (inactive)	> 100 µM (inactive)	> 100 µM (inactive)	> 100 µM (inactive)	72.9 µM (inactive)
Cn1c(=O)c(C(c2ccccc2)c2c(O)c3ccccc3n(C)c2=O)c(O)c2ccccc21	> 100 µM (inactive)		> 100 µM (inactive)	> 100 µM (inactive)	> 100 µM (inactive)	> 100 µM (inactive)	> 100 µM (inactive)		> 100 µM (inactive)	> 100 µM (inactive)	> 100 µM (inactive)	> 100 µM (inactive)	> 100 µM (inactive)	0.0283 µM (active)	> 100 µM (inactive)	> 100 µM (inactive)	> 100 µM (inactive)	> 100 µM (inactive)
CC(C)[Si](OCC1CC(C#N)OC(C)(C)O1)(C(C)C)C(C)C (centres undefined)	32.4 µM (inactive)	23.7 µM (inactive)	18.2 µM (inactive)	15.8 µM (inactive)	15.6 µM (inactive)	18.8 µM (inactive)	19.3 µM (inactive)	19.5 µM (inactive)	16.5 µM (inactive)	28.2 µM (inactive)	39.5 µM (inactive)	18.9 µM (inactive)	30.1 µM (inactive)	19.1 µM (inactive)	21.7 µM (inactive)	20.7 µM (inactive)	16.2 µM (inactive)	19.3 µM (inactive)
CN(C)CCNc1nc(-c2cccs2)cc(-c2cccs2)n1	12.9 µM (inactive)	18.7 µM (inactive)	> 10 µM (inactive)	10.7 µM (inactive)	22.6 µM (inactive)	15.2 µM (inactive)	10.5 µM (inactive)	4.41 µM (inactive)	3.85 µM (inactive)	24.4 µM (inactive)	14.9 µM (inactive)	13.9 µM (inactive)	19.1 µM (inactive)	15.9 µM (inactive)	1.58 µM (inactive)	11.2 µM (inactive)	16.8 µM (inactive)	10.5 µM (inactive)
COc1ccc(NCc2cc(OC)cc(OC)c2)cc1	36.1 µM (inactive)	8.53 µM (inactive)	7.62 µM (inactive)	24.4 µM (inactive)	11.9 µM (inactive)	48.1 µM (inactive)	26.3 µM (inactive)	25.2 µM (inactive)	20.1 µM (inactive)	22.5 µM (inactive)	50.7 µM (inactive)	8.32 µM (inactive)	9.48 µM (inactive)	38.3 µM (inactive)	78.5 µM (inactive)	35.9 µM (inactive)	7 µM (inactive)	25.2 µM (inactive)
